Where “and” joins values, the source holds several entries; their conditions need not be identical. Equal values may be shown once.
Assays:
[1] = Comparative pharmacokinetic profiling of Forms 1 and 2 by inhalation administration to rats; type: in vivo, male RccHan:WIST rat; details: male rats; for Drug Concentration in Animal by No. (plasma) / Drug Concentration Mean (plasma): nominal 2.2 mg/kg; for Drug Concentration in Animal by No. (plasma): individual animals; for Drug Concentration Mean (plasma): group mean
Excerpt: A study was undertaken to compare the time-course of unchanged drug concentrations in plasma following a single inhalation dose of either Form 1 or Form 2 in rats.
The male RccHan™:WIST rat was considered a suitable species and strain because of its acceptance by regulatory agencies. The inhalation route of administration was chosen to simulate the conditions of clinical administration. A total of 14 of animals (six animals per group with two spare animals), 10 to 12 weeks of age and weighing 306 to 341 g at the start of drug treatment, were used in the study. Treatment consisted of a single 2 hour inhalation exposure with a nebulised formulation of either micronised Form 1 (98.94% purity) to Group 1 animals or micronised Form 2 (98.10% purity) to Group 2 animals. The pharmacokinetic parameters of the two polymorphic forms were determined to support pharmacology and toxicology studies in animals and clinical studies in man.
Suspensions were manufactured by first preparing a concentrated solution of the surfactants (wetting solution) and a saline solution. These were then used to make the vehicle. A saline solution was prepared as follows. Sodium chloride (50 g) was weighed into a 5000 mL volumetric flask, made up to volume with water, stirred with a magnetic stirrer for 10 min and then passed through a 0.22 μm membrane filter. Wetting solution was prepared as follows. Lipoid S100 (10 g) was weighed into a 2000 mL Duran bottle, 1000 g of propylene glycol was added and the mixture was stirred on a Silverson mixer equipped with a 1″ high shear screen for 1 min at 8000 rpm and then passed through a 0.22 μm membrane filter. Vehicle was prepared as follows. The wetting solution (500 mL) was transferred into a 5000 mL volumetric flask, made to volume with saline solution, stirred with a magnetic stirrer for 10 min and then passed through a 0.22 μm membrane filter.
A 1000 mL batch of 4 mg/mL suspension of Compound I was prepared as follows. Compound I (4.00 g) was weighed into a small beaker, 100 mL of wetting solution was added and the mixture was stirred with a Silverson mixer equipped with a 1″ high shear screen for 5 min at 8000 rpm. The mixture was then transferred into a 5000 mL Duran bottle using saline solution and stirred using a Silverson mixer equipped with a 1″ high shear screen for 5 min at 8000 rpm, after which it was stored between 2 and 8° C. Higher or lower strength suspensions (range 0.2 to 20 mg/mL) were prepared by adjusting the input weight of API as appropriate for higher mg/mL suspensions or by further diluting with vehicle for lower mg/mL suspensions. All formulations were magnetically stirred for at least 30 min, and assessed visually prior to administration.
Rats were acclimatised to the inhalation dosing procedure for three consecutive days prior to dosing. Animals were treated with the test substance by aerosol inhalation administration for 120 min via snout only exposure, at a target aerosol concentration of 25.2 μg/L. The estimations of inhaled dose from an exposure duration of 2 hr and an assumed body weight of 300 g were calculated using the formula:
[formula] where: C is the aerosol concentration (μg/L); RMV is the respiratory minute volume (L/min); D is the duration of exposure (120 mins) and BW is the group mean body weight (kg). The mean achieved aerosol concentrations, estimated inhaled dose and particle size distribution (PSD) summary data are presented below. (Table 14).
Venous blood samples (0.3 mL) were taken from the tail vein of animals and samples collected after dosing (2 hr from the start of dose administration) and thereafter at times 3, 4, 6, 8, 12, 24, 28, 32, 36 and 48 hr following treatment. Samples were treated with K2EDTA anticoagulant, spun at 2000 g for 10 min at 4° C. and then stored frozen (−20° C.±10) whilst awaiting analysis. Plasma samples were subsequently analysed for Compound I by LGC using a validated LC-MS/MS method. […]

[2] = Fate of Form 2 slurried in single solvents, acetone, water and acetone/water mixtures, XRPD; type: physicochemical
Method: In order to determine the influence of water in determining the output from such conditioning experiments, the behaviour of the Form 2 polymorph was examined in nominally dry organic media and also in monophasic, aqueous mixtures with water miscible solvents.
The same result was also obtained when the conditioning medium was either neat acetone (Table 9, Entries 1 and 6) or water alone (Table 9, Entries 5 and 10). However, in acetone-water mixtures at 50° C. over 24 hr there was clear evidence that in two instances Form 2 had been transformed into Form 1 (Table 9, Entries 7 and 9).

[3] = inhalation, IAD (immediately after dosing)

Which “dose normalised AUCt, fold higher than Form 1” value ([1]; inhalation) does the source give for Cc1cc(N2CCN(c3ccc(C(=O)Nc4ccc(F)cc4)cc3)CC2)ccc1OC[C@@H]1CO[C@@](Cn2cncn2)(c2ccc(F)cc2F)C1 [Form 2, 4-(4-(4-(((3R,5R)-5-((1H-1,2,4-triazol-1-yl)methyl)-5-(2,4-difluorophenyl)tetrahydrofuran-3-yl)methoxy)-3-methylphenyl)piperazin-1-yl)-N-(4-fluorophenyl)benzamide] here?
The value was 1.7 fold.

What about the “Drug Concentration in Animal by No. (plasma)” value ([1]; inhalation, 3 hr from start of exposure) of the same molecule?
The value was 8.95 ng/mL and 5.40 ng/mL and 6.01 ng/mL.

What about the “Drug Concentration Mean (plasma)” value ([1]; inhalation, 3 hr) of the same molecule?
The value was 6.79 ng/mL.

What about the “Drug Concentration in Animal by No. (plasma)” value ([1]; inhalation, 4 hr from start of exposure) of the same molecule?
Its value is 7.53 ng/mL and 9.31 ng/mL and 8.88 ng/mL.

What about the “Drug Concentration Mean (plasma)” value ([1]; inhalation, 4 hr) of the same molecule?
Its value is 8.57 ng/mL.

What about the “Drug Concentration in Animal by No. (plasma)” value ([1]; inhalation, 6 hr from start of exposure) of the same molecule?
Its value is 11.8 ng/mL and 5.38 ng/mL.

What about the “Drug Concentration Mean (plasma)” value ([1]; inhalation, 6 hr) of the same molecule?
The value was 8.59 ng/mL.

And the “Drug Concentration in Animal by No. (plasma)” value ([1]; inhalation, 8 hr from start of exposure)?
The value was 6.85 ng/mL and 5.90 ng/mL and 6.79 ng/mL.

And the “Drug Concentration Mean (plasma)” value ([1]; inhalation, 8 hr)?
Its value is 6.51 ng/mL.

What about the “Drug Concentration in Animal by No. (plasma)” value ([1]; inhalation, 12 hr from start of exposure) of the same molecule?
The value was 10.7 ng/mL and 4.57 ng/mL and 5.84 ng/mL.

What about the “Drug Concentration Mean (plasma)” value ([1]; inhalation, 12 hr) of the same molecule?
The value was 7.04 ng/mL.

What about the “Drug Concentration in Animal by No. (plasma)” value ([1]; inhalation, 24 hr from start of exposure) of the same molecule?
Its value is 11.5 ng/mL.

And the “Drug Concentration in Animal by No. (plasma)” value ([1]; inhalation, 28 hr from start of exposure)?
The value was 8.15 ng/mL and 3.17 ng/mL and 3.32 ng/mL and 4.15 ng/mL and 2.94 ng/mL and 2.93 ng/mL.

And the “Drug Concentration Mean (plasma)” value ([1]; inhalation, 28 hr)?
Its value is 4.11 ng/mL.

What about the “Drug Concentration in Animal by No. (plasma)” value ([1]; inhalation, 32 hr from start of exposure) of the same molecule?
The value was 7.72 ng/mL and 3.50 ng/mL and 3.33 ng/mL and 4.05 ng/mL and 2.75 ng/mL and 2.51 ng/mL.

And the “Drug Concentration Mean (plasma)” value ([1]; inhalation, 32 hr)?
Its value is 3.98 ng/mL.

And the “Drug Concentration in Animal by No. (plasma)” value ([1]; inhalation, 36 hr from start of exposure)?
Its value is 6.28 ng/mL and 2.43 ng/mL (2×) and 2.54 ng/mL and 3.59 ng/mL and 2.49 ng/mL.

And the “Drug Concentration Mean (plasma)” value ([1]; inhalation, 36 hr)?
Its value is 3.29 ng/mL.

What about the “Drug Concentration in Animal by No. (plasma)” value ([1]; inhalation, 48 hr from start of exposure) of the same molecule?
Its value is 3.78 ng/mL and 1.79 ng/mL and 1.89 ng/mL and 2.52 ng/mL and 1.83 ng/mL and 1.91 ng/mL.

What about the “Drug Concentration Mean (plasma)” value ([1]; inhalation, 48 hr) of the same molecule?
The value was 2.29 ng/mL.

And the “Drug Concentration Mean (plasma)” value [1, 3]?
The value was 2.66 ng/mL.

And the “Drug Concentration in Animal by No. (plasma)” value [1, 3]?
The value was 2.24 ng/mL and 2.59 ng/mL and 3.15 ng/mL.

And the AUCt dose normalised ([1]; inhalation, AUCt of Form 2 normalised to dose achieved for Form 1 (2.48 mg/kg), 2.48 mg/kg)?
Its AUCt dose normalised is 202 ng·h/mL.

And the “time up to which plasma concentrations remained quantifiable” value ([1]; inhalation, after the start of exposure (last sampling time))?
Its value is 48 h.

And the “Cmax (maximum mean plasma concentration)” value ([1]; single 2 hr inhalation of nebulised aqueous suspension, nominal dose 2.2 mg/kg, 2.2 mg/kg)?
The value was 8.59 ng/mL.

And the AUCt ([1]; single 2 hr inhalation, nominal dose 2.2 mg/kg, 0-48 hr, 2.2 mg/kg)?
Its AUCt is 230 ng·h/mL.

What about the Tmax ([1]; single 2 hr inhalation, nominal dose 2.2 mg/kg, from start of exposure) of the same molecule?
Its Tmax is 6 h.

What about the “Polymorphic Form by XRPD” value ([2]; acetone, water 0 vol %, 25 °C, 1 and 4 hr) of the same molecule?
The value was 2.

And the “Polymorphic Form by XRPD” value ([2]; acetone, water 0 vol %, 25 °C, 24 hr)?
The value was 2.

What about the “Polymorphic Form by XRPD” value ([2]; acetone, water 0 vol %, 50 °C, 1 and 4 hr) of the same molecule?
The value was 2.

What about the “Polymorphic Form by XRPD” value ([2]; acetone, water 0 vol %, 50 °C, 24 hr) of the same molecule?
Its value is 2.

And the “Polymorphic Form by XRPD” value ([2]; acetone/water, water 10 vol %, 25 °C, 1 and 4 hr)?
Its value is 2.

What about the “Polymorphic Form by XRPD” value ([2]; acetone/water, water 10 vol %, 25 °C, 24 hr) of the same molecule?
Its value is 2.

What about the “Polymorphic Form by XRPD” value ([2]; acetone/water, water 10 vol %, 50 °C, 1 and 4 hr) of the same molecule?
Its value is 2.

And the “Polymorphic Form by XRPD” value ([2]; acetone/water, water 10 vol %, 50 °C, 24 hr)?
The value was 1.

And the “Polymorphic Form by XRPD” value ([2]; acetone/water, water 20 vol %, 25 °C, 1 and 4 hr)?
The value was 2.

What about the “Polymorphic Form by XRPD” value ([2]; acetone/water, water 20 vol %, 25 °C, 24 hr) of the same molecule?
Its value is 2.

What about the “Polymorphic Form by XRPD” value ([2]; acetone/water, water 20 vol %, 50 °C, 1 and 4 hr) of the same molecule?
Its value is 2.

And the “Polymorphic Form by XRPD” value ([2]; acetone/water, water 20 vol %, 50 °C, 24 hr)?
The value was 2.

And the “Polymorphic Form by XRPD” value ([2]; acetone/water, water 40 vol %, 25 °C, 1 and 4 hr)?
Its value is 2.

And the “Polymorphic Form by XRPD” value ([2]; acetone/water, water 40 vol %, 25 °C, 24 hr)?
The value was 2.

What about the “Polymorphic Form by XRPD” value ([2]; acetone/water, water 40 vol %, 50 °C, 1 and 4 hr) of the same molecule?
Its value is 2.

What about the “Polymorphic Form by XRPD” value ([2]; acetone/water, water 40 vol %, 50 °C, 24 hr) of the same molecule?
Its value is 1.

What about the “change in crystal structure on suspension in sole solvent” value ([2]; heptane, TBME, toluene or cyclohexane as sole solvent, 25 or 50 °C, 24 hr) of the same molecule?
The value was “no perceptible change in crystal structure”.

And the “Polymorphic Form by XRPD” value ([2]; water 100 vol %, 25 °C, 1 and 4 hr)?
The value was 2.

And the “Polymorphic Form by XRPD” value ([2]; water 100 vol %, 25 °C, 24 hr)?
The value was 2.

And the “Polymorphic Form by XRPD” value ([2]; water 100 vol %, 50 °C, 1 and 4 hr)?
Its value is 2.

What about the “Polymorphic Form by XRPD” value ([2]; water 100 vol %, 50 °C, 24 hr) of the same molecule?
The value was 2.

Reference: patent publication US12491182B2, “Polymorphs of triazole antifungal compound PC945” (Pulmocide Limited, priority 2019, dated 2025)
